Measured values reported in ChEMBL document CHEMBL1138532, “Global challenge of multidrug-resistant Acinetobacter baumannii” (Antimicrob Agents Chemother, 2007).
Values after ≈ are worked out from the molar mass of the structure shown.

Columns and labels:
Acinetobacter baumannii [1] = experiment: Antimicrobial activity against drug-resistant Acinetobacter baumannii producing PER1 beta-lactamase; format: functional
Acinetobacter baumannii [2] = experiment: Antimicrobial activity against Acinetobacter baumannii isolate producing IMP-4 beta-lactamase by agar dilution method; format: functional
Acinetobacter baumannii [3] = experiment: Antimicrobial activity against Acinetobacter baumannii isolate producing OXA-23 beta-lactamase by agar dilution method; format: functional
Acinetobacter baumannii [4] = experiment: Antimicrobial activity against Acinetobacter baumannii isolate producing metallo beta-lactamase by agar dilution method; format: functional
Acinetobacter baumannii [5] = experiment: Antimicrobial activity against carbapenem-resistant Acinetobacter baumannii expressing ISAba3; format: functional
Acinetobacter baumannii [6] = experiment: Antimicrobial activity against carbapenem-resistant Acinetobacter baumannii expressing ISAba1; format: functional
Homo sapiens = species on record: Homo sapiens; experiment: […] in carbapenem-resistant Acinetobacter baumannii infected human assessed as incidence of acute renal failure; format: toxicity, organism-based; settings: in vivo
Acinetobacter baumannii [7] = experiment: Antimicrobial activity against Acinetobacter baumannii isolates by E-test; format: functional, organism-based

**Q.** For `CO/N=C(\C(=O)N[C@@H]1C(=O)N2C(C(=O)[O-])=C(C[N+]3(C)CCCC3)CS[C@H]12)c1csc(N)n1` [CEFEPIME], which MIC (Acinetobacter baumannii [1]) is on record?
**A.** 32 µg/mL (≈ 66.6 µM)

**Q.** `CC(C)(O/N=C(\C(=O)N[C@@H]1C(=O)N2C(C(=O)[O-])=C(C[n+]3ccccc3)CS[C@H]12)c1csc(N)n1)C(=O)O` [CEFTAZIDIME] was tested. Which MIC (Acinetobacter baumannii [1]) did it give?
**A.** 256 µg/mL (≈ 468 µM)

**Q.** Which results are given for `C[C@@H](O)[C@H]1C(=O)N2C(C(=O)O)=C(S[C@@H]3CN[C@H](CNS(N)(=O)=O)C3)[C@H](C)[C@H]12` [DORIPENEM]?
**A.** MIC (Acinetobacter baumannii [2]): ≤ 4 µg/mL; MIC50 (Acinetobacter baumannii [2]): 0.5 µg/mL (≈ 1.19 µM); MIC90 (Acinetobacter baumannii [2]): 16 µg/mL (≈ 38 µM); MIC (Acinetobacter baumannii [3]): ≤ 4 µg/mL; MIC50 (Acinetobacter baumannii [3]): 0.5 µg/mL (≈ 1.19 µM); MIC90 (Acinetobacter baumannii [3]): 16 µg/mL (≈ 38 µM); MIC (Acinetobacter baumannii [4]): ≤ 4 µg/mL; MIC50 (Acinetobacter baumannii [4]): 0.5 µg/mL (≈ 1.19 µM); MIC90 (Acinetobacter baumannii [4]): 16 µg/mL (≈ 38 µM)

**Q.** With `C[C@@H](O)[C@H]1C(=O)N2C(C(=O)O)=C(SCCNC=N)C[C@H]12` [IMIPENEM ANHYDROUS] as the compound, how does the MIC (Acinetobacter baumannii [5]) read?
**A.** ≥ 32 µg/mL

**Q.** And the MIC (Acinetobacter baumannii [6])?
**A.** ≥ 32 µg/mL

**Q.** What does the source list for `C[C@@H](O)[C@H]1C(=O)N2C(C(=O)O)=C(S[C@@H]3CN[C@H](C(=O)N(C)C)C3)[C@H](C)[C@H]12` [MEROPENEM]?
**A.** MIC (Acinetobacter baumannii [5]): ≥ 32 µg/mL; MIC (Acinetobacter baumannii [6]): ≥ 32 µg/mL

**Q.** How did the Activity (Homo sapiens) turn out when COLISTIN [listing 1 of 2 here] was run?
**A.** 14%

**Q.** How did the MIC (Acinetobacter baumannii [7]) turn out when COLISTIN [listing 2 of 2 here] was run?
**A.** 1 µg/mL
